These results are taken from ChEMBL document CHEMBL3822358 (J Med Chem, 2016).

In experiment [1] the target is Insulin-like growth factor 1 receptor (Homo sapiens, UniProt P08069).
Experiment [2] deals with ALK tyrosine kinase receptor (Homo sapiens, UniProt Q9UM73).
Description: Inhibition of human ALK using poly[Glu:Tyr] (4:1) as substrate and [gamma-33P]ATP measured after 1 hr
The next experiment has as its target Insulin receptor (Homo sapiens, UniProt P06213).
Experiment [3] is described as follows: cells. Particulars: Homo sapiens, KARPAS-299, 72 h.
Description: Antiproliferative activity against human ALK-positive KARPAS299 cells assessed as reduction in cell viability measured after 72 hrs by CellTiter 96 aqueous one solution cell proliferation assay
Experiment [4] can be described thus: cells. Particulars: Homo sapiens, U-937, 72 h.
Description: Antiproliferative activity against human ALK-negative U937 cells assessed as reduction in cell viability measured after 72 hrs by CellTiter 96 aqueous one solution cell proliferation assay

Sequence of Insulin receptor (P06213 28-758 limits assumed): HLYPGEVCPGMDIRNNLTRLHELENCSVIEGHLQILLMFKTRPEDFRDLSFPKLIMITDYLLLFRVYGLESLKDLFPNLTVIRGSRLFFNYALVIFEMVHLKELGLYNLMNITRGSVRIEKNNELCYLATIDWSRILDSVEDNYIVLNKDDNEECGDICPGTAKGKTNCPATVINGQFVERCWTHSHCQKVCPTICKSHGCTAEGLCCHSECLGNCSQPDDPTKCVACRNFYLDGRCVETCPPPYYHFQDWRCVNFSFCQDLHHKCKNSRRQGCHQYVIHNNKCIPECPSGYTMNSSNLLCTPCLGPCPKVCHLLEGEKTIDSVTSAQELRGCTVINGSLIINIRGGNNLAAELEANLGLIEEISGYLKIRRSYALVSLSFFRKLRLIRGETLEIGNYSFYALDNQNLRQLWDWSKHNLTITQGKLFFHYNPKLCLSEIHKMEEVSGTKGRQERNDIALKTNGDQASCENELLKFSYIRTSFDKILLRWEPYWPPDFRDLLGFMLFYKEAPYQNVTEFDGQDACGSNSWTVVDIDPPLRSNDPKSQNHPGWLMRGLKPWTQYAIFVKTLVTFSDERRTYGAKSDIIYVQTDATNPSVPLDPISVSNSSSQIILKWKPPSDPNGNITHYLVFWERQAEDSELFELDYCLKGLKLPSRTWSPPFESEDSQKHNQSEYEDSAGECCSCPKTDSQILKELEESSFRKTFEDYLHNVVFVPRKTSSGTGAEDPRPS
Sequence of Insulin receptor (P06213 763-1382 limits assumed): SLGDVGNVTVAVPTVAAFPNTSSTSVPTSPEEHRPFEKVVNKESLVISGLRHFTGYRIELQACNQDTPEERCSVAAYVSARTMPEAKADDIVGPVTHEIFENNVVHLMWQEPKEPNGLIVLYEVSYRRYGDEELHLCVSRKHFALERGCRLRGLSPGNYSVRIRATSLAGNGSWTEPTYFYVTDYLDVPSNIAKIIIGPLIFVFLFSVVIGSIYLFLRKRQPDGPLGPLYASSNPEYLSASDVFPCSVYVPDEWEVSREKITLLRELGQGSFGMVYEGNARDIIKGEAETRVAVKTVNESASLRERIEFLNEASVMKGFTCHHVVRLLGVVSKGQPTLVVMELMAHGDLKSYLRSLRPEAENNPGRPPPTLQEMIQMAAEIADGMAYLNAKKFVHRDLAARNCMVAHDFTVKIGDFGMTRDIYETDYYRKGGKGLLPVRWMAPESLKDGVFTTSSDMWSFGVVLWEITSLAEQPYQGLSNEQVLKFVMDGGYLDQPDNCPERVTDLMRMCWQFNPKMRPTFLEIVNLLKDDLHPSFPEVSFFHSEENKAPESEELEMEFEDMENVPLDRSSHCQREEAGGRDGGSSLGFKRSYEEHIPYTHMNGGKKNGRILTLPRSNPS
Sequence of ALK tyrosine kinase receptor (Q9UM73 whole entry): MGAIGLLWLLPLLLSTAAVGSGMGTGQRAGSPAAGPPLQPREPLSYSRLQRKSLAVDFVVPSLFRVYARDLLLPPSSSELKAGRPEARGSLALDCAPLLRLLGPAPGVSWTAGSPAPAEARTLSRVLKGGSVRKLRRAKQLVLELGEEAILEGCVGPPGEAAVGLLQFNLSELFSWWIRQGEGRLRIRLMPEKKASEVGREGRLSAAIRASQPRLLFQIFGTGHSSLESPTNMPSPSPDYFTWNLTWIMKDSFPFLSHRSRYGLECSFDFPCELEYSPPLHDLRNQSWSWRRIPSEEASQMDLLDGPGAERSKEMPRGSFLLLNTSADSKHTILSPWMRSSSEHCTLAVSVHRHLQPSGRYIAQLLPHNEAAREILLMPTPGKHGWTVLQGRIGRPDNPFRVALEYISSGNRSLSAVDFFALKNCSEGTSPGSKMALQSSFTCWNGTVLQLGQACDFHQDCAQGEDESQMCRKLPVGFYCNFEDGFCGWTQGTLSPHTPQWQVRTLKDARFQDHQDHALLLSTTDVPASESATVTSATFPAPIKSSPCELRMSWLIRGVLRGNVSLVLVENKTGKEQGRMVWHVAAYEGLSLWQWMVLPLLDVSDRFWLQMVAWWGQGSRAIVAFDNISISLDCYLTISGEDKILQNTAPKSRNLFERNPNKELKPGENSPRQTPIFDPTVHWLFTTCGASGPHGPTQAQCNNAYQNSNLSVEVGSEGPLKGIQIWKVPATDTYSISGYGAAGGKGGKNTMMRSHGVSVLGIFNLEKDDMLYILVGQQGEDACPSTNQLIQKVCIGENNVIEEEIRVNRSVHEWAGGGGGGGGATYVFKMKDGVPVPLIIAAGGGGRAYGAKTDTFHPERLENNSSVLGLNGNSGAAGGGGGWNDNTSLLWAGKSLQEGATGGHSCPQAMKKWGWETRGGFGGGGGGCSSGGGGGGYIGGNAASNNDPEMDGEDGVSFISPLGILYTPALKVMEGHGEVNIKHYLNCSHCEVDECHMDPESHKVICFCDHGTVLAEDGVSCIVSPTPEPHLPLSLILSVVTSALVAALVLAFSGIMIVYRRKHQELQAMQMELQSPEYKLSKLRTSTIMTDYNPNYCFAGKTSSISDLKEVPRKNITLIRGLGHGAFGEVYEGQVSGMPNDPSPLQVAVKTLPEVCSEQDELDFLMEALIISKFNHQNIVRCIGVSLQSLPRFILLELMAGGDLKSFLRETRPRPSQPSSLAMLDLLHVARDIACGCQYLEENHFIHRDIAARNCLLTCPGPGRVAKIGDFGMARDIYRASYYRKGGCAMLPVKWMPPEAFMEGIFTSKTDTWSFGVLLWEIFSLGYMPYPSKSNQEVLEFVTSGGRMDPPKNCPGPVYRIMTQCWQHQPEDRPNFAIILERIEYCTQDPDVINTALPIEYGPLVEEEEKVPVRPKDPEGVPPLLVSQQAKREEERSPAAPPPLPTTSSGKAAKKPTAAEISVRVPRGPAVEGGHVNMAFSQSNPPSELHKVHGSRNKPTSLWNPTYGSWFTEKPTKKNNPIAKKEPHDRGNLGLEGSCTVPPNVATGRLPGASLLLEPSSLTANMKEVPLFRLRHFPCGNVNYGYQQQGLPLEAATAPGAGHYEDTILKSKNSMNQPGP
Sequence of Insulin-like growth factor 1 receptor (P08069 31-736 limits assumed): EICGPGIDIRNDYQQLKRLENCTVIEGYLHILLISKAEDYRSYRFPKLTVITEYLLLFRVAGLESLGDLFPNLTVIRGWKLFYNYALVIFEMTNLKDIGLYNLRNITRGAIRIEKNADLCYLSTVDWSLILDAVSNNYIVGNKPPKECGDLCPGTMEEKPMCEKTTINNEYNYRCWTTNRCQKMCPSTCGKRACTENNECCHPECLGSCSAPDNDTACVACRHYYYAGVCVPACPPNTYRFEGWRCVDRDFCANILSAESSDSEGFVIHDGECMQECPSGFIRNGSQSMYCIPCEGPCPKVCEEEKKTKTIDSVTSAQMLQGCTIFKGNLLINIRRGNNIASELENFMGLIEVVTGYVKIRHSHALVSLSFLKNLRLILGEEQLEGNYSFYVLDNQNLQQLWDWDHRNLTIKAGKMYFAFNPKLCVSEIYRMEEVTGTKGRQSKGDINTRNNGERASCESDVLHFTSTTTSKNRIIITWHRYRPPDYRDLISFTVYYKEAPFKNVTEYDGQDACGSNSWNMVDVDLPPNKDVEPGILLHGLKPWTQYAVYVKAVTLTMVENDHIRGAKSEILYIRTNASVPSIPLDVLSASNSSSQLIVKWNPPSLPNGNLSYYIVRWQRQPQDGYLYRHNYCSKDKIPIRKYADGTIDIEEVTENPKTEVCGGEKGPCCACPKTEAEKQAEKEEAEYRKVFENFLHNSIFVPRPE
Sequence of Insulin-like growth factor 1 receptor (P08069 741-1367 limits assumed): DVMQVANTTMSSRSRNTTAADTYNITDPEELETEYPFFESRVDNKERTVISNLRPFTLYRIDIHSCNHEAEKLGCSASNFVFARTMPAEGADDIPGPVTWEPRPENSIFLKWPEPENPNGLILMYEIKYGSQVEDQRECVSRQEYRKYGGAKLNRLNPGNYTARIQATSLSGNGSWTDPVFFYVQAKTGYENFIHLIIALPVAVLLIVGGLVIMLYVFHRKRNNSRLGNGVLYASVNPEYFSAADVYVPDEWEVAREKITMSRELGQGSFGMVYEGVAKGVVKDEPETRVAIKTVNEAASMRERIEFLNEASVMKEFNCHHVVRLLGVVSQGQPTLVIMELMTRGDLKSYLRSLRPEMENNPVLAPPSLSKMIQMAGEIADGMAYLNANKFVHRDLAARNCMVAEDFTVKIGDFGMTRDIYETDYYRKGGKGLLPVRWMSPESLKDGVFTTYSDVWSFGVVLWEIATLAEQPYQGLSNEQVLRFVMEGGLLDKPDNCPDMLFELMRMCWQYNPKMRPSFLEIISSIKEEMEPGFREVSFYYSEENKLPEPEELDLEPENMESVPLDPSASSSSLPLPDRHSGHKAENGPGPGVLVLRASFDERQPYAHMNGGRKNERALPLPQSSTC
Description for Insulin receptor: Inhibition of human InsR using myelin basic protein as substrate and [gamma-33P]ATP measured after 1 hr

On to `COc1cc(N2CCC(N3CCN(C)CC3)CC2)ccc1Nc1ncc(Cl)c(Nc2ccccc2C#N)n1`, for which the IC50 was 51.6 nM in experiment [1], 1.86 nM in experiment [2] and 128 nM against Insulin receptor.

In the case of `COc1cc(N2CCC(N3CCN(C)CC3)CC2)ccc1Nc1ncc(Cl)c(Nc2ccccc2)n1`, the IC50 in experiment [1] worked out at 51.6 nM; in experiment [2], 9.9 nM; against Insulin receptor, 81.7 nM.

On to `COc1cc(N2CCC(N3CCN(C)CC3)CC2)ccc1Nc1ncc(C2CC2)c(Nc2ccccc2P(C)(C)=O)n1`, for which the IC50 in “cells [3]” was determined as 278 nM; in the experiment “cells [4]”, 10600 nM; in experiment [1], 434 nM; in experiment [2], 3.23 nM; against Insulin receptor it was 367 nM.

Consider `COc1cc(N2CCC(N3CCN(C)CC3)CC2)ccc1Nc1ncc(Cl)c(Nc2ccccc2OC)n1`, for which the IC50 in “cells [3]” is 851 nM; in experiment [1], 8.7 nM; in experiment [2], 1.88 nM; against Insulin receptor it was 26 nM.

As to `COc1cc(N2CCC(N(C)C)CC2)ccc1Nc1ncc(Cl)c(Nc2ccccc2P(C)(C)=O)n1`, the IC50 in “cells [3]” was 41.5 nM; in the experiment “cells [4]”, 1720 nM; in experiment [1], 3.2 nM; in experiment [2], 0.07 nM; against Insulin receptor, 100 nM.

Regarding `COc1cc(N2CCC(N3CCN(C)CC3)CC2)ccc1Nc1ncc(Cl)c(Nc2ccccc2C(C)O)n1` (stereo not given), the IC50 in experiment [1] is 36.1 nM; in experiment [2], 0.99 nM; at Insulin receptor, 43.2 nM.

On to `COc1cc(P(C)(C)=O)ccc1Nc1ncc(Cl)c(Nc2ccccc2P(C)(C)=O)n1`, for which the IC50 in the experiment “cells [3]” was 738 nM; in “cells [4]”, 13200 nM; in experiment [1], 139 nM; in experiment [2], 1.06 nM; at Insulin receptor it was 726 nM.

Turning to `COc1cc(N2CCC(N3CCN(C)CC3)CC2)ccc1Nc1ncc(Cl)c(Nc2ccccc2S(=O)(=O)N(C)C)n1`, the IC50 worked out at 1.93 nM in experiment [1], 0.75 nM in experiment [2] and 8.44 nM at Insulin receptor.

Take `COc1cc(N2CCC(N3CCN(C)CC3)CC2)ccc1Nc1ncc(Cl)c(Nc2ccccc2C(N)=O)n1`: the IC50 in experiment [1] came out at 1.4 nM; in experiment [2], 0.8 nM; against Insulin receptor, 3.4 nM.

As to `COc1cc(N2CCC(N3CCCN(C)CC3)CC2)ccc1Nc1ncc(Cl)c(Nc2ccccc2P(C)(C)=O)n1`, the IC50 in the experiment “cells [3]” worked out at 105 nM; in “cells [4]”, 3390 nM; in experiment [1], 38.8 nM; in experiment [2], 0.49 nM; at Insulin receptor, 162 nM.

With `COc1cc(P(C)(C)=O)ccc1Nc1ncc(Cl)c(Nc2ccccc2C(C)=O)n1`, the IC50 in “cells [3]” worked out at 251 nM; in “cells [4]” it was 1420 nM; in experiment [1], 0.47 nM; in experiment [2], 0.79 nM; against Insulin receptor, 0.88 nM.

Take `COc1cc(P(C)(C)=O)ccc1Nc1ncc(Cl)c(Nc2ccccc2C(N)=O)n1`: the IC50 in the experiment “cells [3]” worked out at 613 nM; in “cells [4]” it was 2370 nM; in experiment [1], 0.11 nM; in experiment [2] it was 0.68 nM; at Insulin receptor, 14.1 nM.

As for `COc1cc(N2CCC(N3CCN(C)CC3)CC2)ccc1Nc1ncc(C)c(Nc2ccccc2P(C)(C)=O)n1`, the IC50 in the experiment “cells [3]” is 46.9 nM; in “cells [4]”, 5310 nM; in experiment [1], 128 nM; in experiment [2] it was 0.42 nM; against Insulin receptor, 483 nM.

`COc1cc(N2CCC(N3CCN(C)CC3)CC2)ccc1Nc1ncc(Cl)c(Nc2ccccc2I)n1`: the IC50 was 705 nM in the experiment “cells [3]”, 6.2 nM in experiment [1], 1.36 nM in experiment [2] and 13.7 nM against Insulin receptor.

Consider `COc1cc(N2CCC(N3CCN(C)CC3)CC2)ccc1Nc1ncc(C(C)=O)c(Nc2ccccc2P(C)(C)=O)n1`, for which the IC50 in experiment [2] turned out to be 291 nM.

Turning to `COc1cc(OCCCN2CCCC2)ccc1Nc1ncc(Cl)c(Nc2ccccc2P(C)(C)=O)n1`, the IC50 was found to be 113 nM in “cells [3]”; 2310 nM in the experiment “cells [4]”; 17.4 nM in experiment [1]; 0.22 nM in experiment [2]; 284 nM on Insulin receptor.

For `COc1cc(N2CCN(C3CCN(C)CC3)CC2)ccc1Nc1ncc(Cl)c(Nc2ccccc2P(C)(C)=O)n1`, the IC50 was 101 nM in “cells [3]”; 4920 nM in the experiment “cells [4]”; 43.3 nM in experiment [1]; 0.28 nM in experiment [2]; 285 nM at Insulin receptor.

On to `COc1cc(N2CCCN(C)CC2)ccc1Nc1ncc(Cl)c(Nc2ccccc2P(C)(C)=O)n1`, for which the IC50 in “cells [3]” was determined as 53.9 nM; in “cells [4]”, 2970 nM; in experiment [1], 77.5 nM; in experiment [2], 0.72 nM; at Insulin receptor, 339 nM.

For `COc1cc(P(C)(C)=O)ccc1Nc1ncc(Cl)c(Nc2ccccc2S(=O)(=O)C(C)C)n1`, the IC50 in the experiment “cells [3]” was 20 nM; in the experiment “cells [4]” it was 4840 nM; in experiment [1], 1.9 nM; in experiment [2], 0.31 nM; against Insulin receptor it was 9.9 nM.

Regarding `COc1cc(N2CC[C@@H](N(C)C)C2)ccc1Nc1ncc(Cl)c(Nc2ccccc2P(C)(C)=O)n1`, the IC50 was found to be 66.9 nM in “cells [3]”; 1170 nM in the experiment “cells [4]”; 42.7 nM in experiment [1]; 0.33 nM in experiment [2]; 489 nM on Insulin receptor.

In the case of `COc1cc(N2CCC(N3CCN(C)CC3)CC2)ccc1Nc1ncc(Cl)c(Nc2ccccc2C(=O)N(C)C)n1`, the half-maximal inhibitory concentration (IC50) in experiment [1] came to 6.17 nM; in experiment [2], 4.77 nM; on Insulin receptor it was 6.05 nM.

As for `COc1cc(P(C)(C)=O)ccc1Nc1ncc(Cl)c(Nc2ccccc2OC)n1`, the IC50 in “cells [3]” came out at 278 nM; in the experiment “cells [4]” it was 2910 nM; in experiment [1] it was 22.1 nM; in experiment [2] it was 0.96 nM; against Insulin receptor, 55.2 nM.

For `COc1ccccc1Nc1ncc(Cl)c(Nc2ccccc2S(=O)(=O)C(C)C)n1`, the IC50 in the experiment “cells [3]” came out at 349 nM; in the experiment “cells [4]”, 20800 nM; in experiment [2] it was 2.1 nM.

As for `CCP(=O)(CC)c1ccccc1Nc1nc(Nc2ccc(N3CCC(N4CCN(C)CC4)CC3)cc2OC)ncc1Cl`, the IC50 came out at 169 nM in “cells [3]”; 3460 nM in “cells [4]”; 45.1 nM in experiment [1]; 0.12 nM in experiment [2]; 314 nM on Insulin receptor.

`COc1cc(N2CCC(N3CCN(C)CC3)CC2)ccc1Nc1ncc(Cl)c(Nc2ccccc2C(C)=O)n1`: the figures for the IC50 (in experiment [1]; in experiment [2]; against Insulin receptor) were 1.33 nM, 1.59 nM and 2.16 nM, respectively.

As to `CNC(=O)CN1CCN(c2ccc(Nc3ncc(Cl)c(Nc4ccccc4P(C)(C)=O)n3)c(OC)c2)CC1`, the IC50 came to 270 nM in “cells [3]”; 7000 nM in “cells [4]”; 125 nM in experiment [1]; 3.1 nM in experiment [2]; 459 nM against Insulin receptor.

Turning to `COc1cc(N2CCC(N3CCN(C)CC3)CC2)c(C)cc1Nc1ncc(Cl)c(Nc2ccccc2P(C)(C)=O)n1`, the GI50 in the experiment “cells [3]” came out at 16 nM; in “cells [4]”, 1280 nM. In addition, the values for the IC50 (in experiment [1]; in experiment [2]; on Insulin receptor) were 27 nM, 0.86 nM and 171 nM, respectively.

Take `CC(C)Oc1cc(N2CCC(N3CCN(C)CC3)CC2)ccc1Nc1ncc(Cl)c(Nc2ccccc2P(C)(C)=O)n1`: the IC50 in the experiment “cells [3]” is 54.6 nM; in the experiment “cells [4]”, 21500 nM; in experiment [1], 203 nM; in experiment [2], 0.68 nM; against Insulin receptor, 700 nM.

For the compound `CCOc1cc(N2CCC(N3CCN(C)CC3)CC2)ccc1Nc1ncc(Cl)c(Nc2ccccc2P(C)(C)=O)n1`, the IC50 in the experiment “cells [3]” was 58.9 nM; in “cells [4]”, 22400 nM; in experiment [1], 103 nM; in experiment [2], 0.75 nM; against Insulin receptor, 253 nM.

For the compound `COc1cc(N2CCN(C(C)=O)CC2)ccc1Nc1ncc(Cl)c(Nc2ccccc2P(C)(C)=O)n1`, the 50% inhibitory concentration (IC50) came to 79.9 nM in “cells [3]”, 5450 nM in “cells [4]”, 32.5 nM in experiment [1] and 103 nM against Insulin receptor.

On to `COc1cc(N2CCC(N3CCN(C)CC3)CC2)ccc1Nc1ncc(Cl)c(Nc2ccccc2S(C)(=O)=O)n1`, for which the IC50 in experiment [1] is 0.76 nM; in experiment [2], 0.59 nM; against Insulin receptor it was 5.1 nM.

Turning to `COc1cc(N2CCC(N3CCN(C)CC3)CC2)c(F)cc1Nc1ncc(Cl)c(Nc2ccccc2P(C)(C)=O)n1`, the IC50 in the experiment “cells [3]” was 162 nM; in “cells [4]”, 1230 nM; in experiment [1], 59.5 nM; in experiment [2] it was 1.03 nM; against Insulin receptor it was 1180 nM.

As to `COc1cc(-c2cnn(C3CCNCC3)c2)ccc1Nc1ncc(Cl)c(Nc2ccccc2P(C)(C)=O)n1`, the IC50 was 322 nM in the experiment “cells [3]”; 6230 nM in “cells [4]”; 98.1 nM in experiment [1]; 0.76 nM in experiment [2]; 702 nM against Insulin receptor.

Take `COc1cc(N2CCC(N3CCN(C)CC3)CC2)ccc1Nc1ncc(OC)c(Nc2ccccc2P(C)(C)=O)n1`: the IC50 in the experiment “cells [3]” stood at 429 nM; in the experiment “cells [4]” it was 13900 nM; in experiment [1], 117 nM; in experiment [2] it was 1.19 nM; at Insulin receptor it was 1680 nM.

`COc1cc(N2CCC(N3CCCCC3)C2)ccc1Nc1ncc(Cl)c(Nc2ccccc2P(C)(C)=O)n1` (stereo not given): the IC50 in the experiment “cells [3]” turned out to be 66.7 nM; in the experiment “cells [4]”, 2390 nM; in experiment [1], 81.5 nM; in experiment [2] it was 0.88 nM; against Insulin receptor, 270 nM.

Regarding `COc1cc(P(C)(C)=O)ccc1Nc1ncc(Cl)c(Nc2ccccc2S(C)(=O)=O)n1`, the IC50 was 405 nM in “cells [3]”; 4810 nM in “cells [4]”; 0.4 nM in experiment [1]; 0.33 nM in experiment [2]; 4.7 nM at Insulin receptor.

As to `COc1cc(N2CCOCC2)ccc1Nc1ncc(Cl)c(Nc2ccccc2P(C)(C)=O)n1`, the IC50 in “cells [3]” came out at 77.4 nM; in “cells [4]”, 5990 nM; in experiment [1] it was 51.4 nM; in experiment [2], 0.24 nM; on Insulin receptor, 399 nM.

As to `COc1cc(OC2CCN(C)C2)ccc1Nc1ncc(Cl)c(Nc2ccccc2P(C)(C)=O)n1` (stereo not given), the IC50 stood at 65.1 nM in the experiment “cells [3]”; 6330 nM in “cells [4]”; 100 nM in experiment [1]; 0.33 nM in experiment [2]; 397 nM against Insulin receptor.

On to `COc1cc(N2CCC(N3CCN(C)CC3)CC2)ccc1Nc1ncc(F)c(Nc2ccccc2P(C)(C)=O)n1`, for which the concentration for half-maximal inhibition (IC50) was 147 nM in “cells [3]”; 24200 nM in “cells [4]”; 143 nM in experiment [1]; 0.39 nM in experiment [2]; 1680 nM against Insulin receptor.
